Source: paper PMC5026600 (ACS chemical biology, 2016)
Like-named read-outs stand apart in the source and are kept apart here.

Legend:
TamI-RhFRED = conditions: cited from earlier work
MycCI/MycCII = target: T1, MycCI/MycCII (Micromonospora griseorubida, UniProt Q83WF5); assay: Total turnover number; type: biochemical; conditions: MycCI/MycCII/MBP-FdR
T1 sequence (Q83WF5 1-388): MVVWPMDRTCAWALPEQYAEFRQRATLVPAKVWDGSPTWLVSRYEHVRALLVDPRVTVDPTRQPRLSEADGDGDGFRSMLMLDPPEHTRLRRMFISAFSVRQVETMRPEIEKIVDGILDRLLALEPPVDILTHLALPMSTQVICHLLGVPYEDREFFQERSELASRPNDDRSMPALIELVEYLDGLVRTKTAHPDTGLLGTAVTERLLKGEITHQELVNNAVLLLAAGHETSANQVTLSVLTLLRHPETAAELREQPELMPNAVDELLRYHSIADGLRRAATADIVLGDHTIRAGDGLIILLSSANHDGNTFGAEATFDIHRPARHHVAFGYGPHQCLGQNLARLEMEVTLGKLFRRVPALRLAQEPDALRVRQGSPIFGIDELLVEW

MycCI [1] = target: T2, MycCI (Micromonospora griseorubida, UniProt Q83WF5); assay: Equilibrium substrate binding assay; conditions: for Percent of enzyme in high-spin state at saturating substrate: MycCI wild-type, relative to saturation with 10 taken as complete conversion
T2 sequence (Q83WF5 1-388): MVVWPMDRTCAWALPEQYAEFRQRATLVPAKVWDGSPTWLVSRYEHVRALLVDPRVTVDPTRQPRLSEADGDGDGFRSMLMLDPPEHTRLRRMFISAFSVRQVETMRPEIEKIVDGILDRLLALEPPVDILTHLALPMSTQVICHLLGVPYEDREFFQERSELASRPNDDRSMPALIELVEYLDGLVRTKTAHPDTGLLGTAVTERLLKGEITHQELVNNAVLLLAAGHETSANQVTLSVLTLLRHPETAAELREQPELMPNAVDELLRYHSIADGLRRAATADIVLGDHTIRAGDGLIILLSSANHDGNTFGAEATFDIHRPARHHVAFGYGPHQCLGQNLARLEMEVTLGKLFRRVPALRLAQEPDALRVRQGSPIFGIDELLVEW

MycCI-RhFRED = MycCI-RhFRED (Micromonospora griseorubida, UniProt Q83WF5); assay: Steady-state kinetics / TOF, product formation by HPLC; type: biochemical; conditions: for Fold lower rate of product formation vs tripartite MycCI system: MycCI-RhFRED compared to MycCI/MycCII/MBP-FdR, label is the product formed
[2] = target: T3, MycCI in conjunction with MycCII and MBP-FdR (Micromonospora griseorubida, UniProt Q83WF5); assay: Scale-up reactions with MycCI, MycCII and MBP-FdR, conversion; type: biochemical; conditions: for Conversion: scale-up reactions
T3 sequence (Q83WF5 1-388): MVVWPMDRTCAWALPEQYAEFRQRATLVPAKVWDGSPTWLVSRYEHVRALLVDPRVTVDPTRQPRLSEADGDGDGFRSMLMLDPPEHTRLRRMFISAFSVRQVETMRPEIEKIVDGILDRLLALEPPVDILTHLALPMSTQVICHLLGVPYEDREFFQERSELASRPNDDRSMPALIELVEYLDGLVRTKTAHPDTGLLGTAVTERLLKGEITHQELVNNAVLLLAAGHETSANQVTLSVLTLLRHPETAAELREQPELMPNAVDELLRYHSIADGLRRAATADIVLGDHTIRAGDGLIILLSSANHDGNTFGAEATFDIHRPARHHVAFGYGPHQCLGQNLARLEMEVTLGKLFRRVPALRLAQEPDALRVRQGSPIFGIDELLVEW

OleP = conditions: binding to OleP; cited from earlier work
TylHI/TylHII = TylHI/TylHII (Streptomyces fradiae, UniProt Q9ZHQ1); assay: Turnover frequency; type: biochemical; conditions: TylHI/TylHII/MBP-FdR
Sequence of TylHI/TylHII (Q9ZHQ1 whole entry): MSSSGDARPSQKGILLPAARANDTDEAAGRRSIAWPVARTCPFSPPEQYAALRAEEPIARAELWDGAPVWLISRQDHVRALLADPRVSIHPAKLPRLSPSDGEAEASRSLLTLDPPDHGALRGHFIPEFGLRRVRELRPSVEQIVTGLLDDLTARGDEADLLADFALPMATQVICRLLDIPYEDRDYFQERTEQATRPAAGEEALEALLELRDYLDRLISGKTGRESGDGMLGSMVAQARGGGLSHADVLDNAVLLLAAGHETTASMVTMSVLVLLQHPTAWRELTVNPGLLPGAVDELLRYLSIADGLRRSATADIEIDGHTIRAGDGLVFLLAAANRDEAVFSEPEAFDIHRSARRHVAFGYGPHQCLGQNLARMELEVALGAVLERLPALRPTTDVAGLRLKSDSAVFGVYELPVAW

TylHI/MycCII = TylHI/MycCII (Streptomyces fradiae, UniProt Q9ZHQ1); assay: Turnover frequency; type: biochemical; conditions: MycCII as surrogate ferredoxin vs TylHII
Sequence of TylHI/MycCII (Q9ZHQ1 whole entry): as above

[3] = target: MycCI (Micromonospora griseorubida) (UniProt Q83WF5); conditions: cited from earlier work
MycCI/MycCII/MBP-FdR = target: T4, MycCI/MycCII/MBP-FdR (Micromonospora griseorubida, UniProt Q83WF5); assay: Steady-state kinetics / TOF, product formation by HPLC; type: biochemical
T4 sequence (Q83WF5 1-388): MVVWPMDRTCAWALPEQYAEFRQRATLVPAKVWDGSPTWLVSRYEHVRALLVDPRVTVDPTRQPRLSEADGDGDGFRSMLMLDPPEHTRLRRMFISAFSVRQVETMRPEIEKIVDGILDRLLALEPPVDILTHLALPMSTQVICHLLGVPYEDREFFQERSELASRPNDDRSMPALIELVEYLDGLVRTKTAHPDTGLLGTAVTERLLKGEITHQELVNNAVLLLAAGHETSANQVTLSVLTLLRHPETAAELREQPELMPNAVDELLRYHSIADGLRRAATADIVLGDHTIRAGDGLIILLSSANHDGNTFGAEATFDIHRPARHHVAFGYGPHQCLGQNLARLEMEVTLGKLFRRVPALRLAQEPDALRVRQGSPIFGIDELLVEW

MycCI [4] = target: T2, MycCI; conditions: determined by monitoring NADPH consumption; cited from earlier work
MycCI [5] = target: T2, MycCI; conditions: read-out: apparent dissociation constant (Kd); N-terminal His-tagged MycCII binding to MycCI; cited from earlier work

## CC(/C=C/C(O)=C1/C(=O)CNC1=O)=C\[C@@H](C)[C@H]1O[C@@]2(C)O[C@H](C(=O)[C@H]3O[C@]32C)[C@@H]1C [tirandamycin A]
TamI-RhFRED
  kcat: 0.00183 ± 0.00017 s⁻¹

## CC[C@H]1OC(=O)[C@H](C)C(=O)[C@H](C)[C@@H](O)[C@@H](C)C[C@@H](C)C(=O)/C=C/[C@H]1C [compound 4, narbonolide]
MycCI/MycCII
  C-H oxidation of the compound by the enzyme: unable to catalyze C-H oxidation
MycCI [1]; MycCI
  Concentration-dependent change in the spin state of the enzyme: did not induce a concentration-dependent change in the spin state

## 23-hydroxy-tylactone [compound 15]
MycCI-RhFRED
  Fold lower rate of product formation vs tripartite MycCI system: about 3 fold

## CC[C@H]1OC(=O)[C@H](C)C(=O)[C@H](C)[C@@H](O[C@@H]2O[C@H](C)C[C@H](N(C)C)[C@H]2O)[C@@H](C)C[C@@H](C)C(=O)/C=C/[C@H]1C [compound 5, narbomycin]
MycCI [1]
  Percent of enzyme in high-spin state at saturating substrate: ~ 80%
[2]; scale-up, first monohydroxylated product
  Monohydroxylated product, share of the reaction mixture: ~ 2%
[2]; scale-up, second product
  Slightly more polar monohydroxylated product, share of the reaction mixture: ~ 0.5%

## CC[C@H]1OC(=O)/C=C/[C@H](C)[C@@H](O)[C@@H](C)C[C@@H](C)C(=O)/C=C/C=C/[C@@H]1CO [compound 13, mycinolide IV]
MycCI-RhFRED
  Fold lower rate of product formation vs tripartite MycCI system: ~6 fold

## CC[C@H]1OC(=O)[C@H](C)[C@@H](O)[C@@H](C)C[C@@H](C)C(=O)/C=C/[C@H]1C [compound 2, 10-deoxymethynolide]
MycCI/MycCII
  C-H oxidation of the compound by the enzyme: unable to catalyze C-H oxidation
MycCI [1]; MycCI
  Concentration-dependent change in the spin state of the enzyme: did not induce a concentration-dependent change in the spin state

## CC(=O)N1CCN(c2ccc(OCC3COC(Cn4ccnc4)(c4ccc(Cl)cc4Cl)O3)cc2)CC1 (centres unmarked) [ketoconazole]
OleP
  Kd: 0.005 µM

## CC[C@H]1OC(=O)C[C@@H](O)[C@H](C)[C@@H](O[C@@H]2O[C@H](C)[C@@H](O)[C@H](N(C)C)[C@H]2O)[C@@H](CC=O)C[C@@H](C)C(=O)/C=C/C(C)=C/[C@@H]1C [compound 12, 23-deoxy-5-O-mycaminosyl-tylonolide]
TylHI/TylHII
  Turnover frequency (TOF): 0.14 ± 0.03 min⁻¹
TylHI/MycCII
  Fold increase of TOF with MycCII instead of TylHII: 12 fold

## CC[C@H]1C[C@@H](C)C(=O)/C=C/C(C)=C/[C@H](C)[C@@H](CC)OC(=O)C[C@@H](O)[C@H](C)[C@H]1O [compound 10, tylactone]
MycCI [1]; Kd, MycCI
  Kd: ~3 µM
[2]
  Conversion: ~ 50%

## CC[C@H]1OC(=O)/C=C/[C@H](C)[C@@H](O)[C@@H](C)C[C@@H](C)C(=O)/C=C/C=C/[C@@H]1C [compound 8, protomycinolide IV]
MycCI [1]
  Percent of enzyme in high-spin state at saturating substrate: ~ 80%
MycCI-RhFRED; MycCI-RhFRED, product formation
  Fold lower specificity constant relative to 10: ~ 14 fold
[2]
  Conversion: ~ 30%

## MycCII (from UniProt Q83WF4)
[3]
  Kd: 7 µM

## CC[C@H]1OC(=O)/C=C/[C@H](C)[C@@H](O[C@@H]2O[C@H](C)C[C@H](N(C)C)[C@H]2O)[C@@H](C)C[C@@H](C)C(=O)/C=C/C=C/[C@@H]1C [compound 9, mycinamicin VIII]
MycCI-RhFRED; MycCI-RhFRED, 500 μM substrate
  Turnover frequency (TOF): 1.19 ± 0.06 min⁻¹
MycCI/MycCII/MBP-FdR; MycCI/MycCII/MBP-FdR, 10 μM substrate
  Turnover rate at low substrate concentration: 2.3 ± 0.3 min⁻¹
MycCI/MycCII/MBP-FdR; tripartite MycCI/MycCII/MBP-FdR, 500 μM substrate
  Turnover frequency (TOF): 1.4 ± 0.1 min⁻¹
MycCI [4]
  kcat: 1.73 ± 0.033 s⁻¹

## CC[C@H]1OC(=O)[C@H](C)[C@@H](O[C@@H]2O[C@H](C)C[C@H](N(C)C)[C@H]2O)[C@@H](C)C[C@@H](C)C(=O)/C=C/[C@H]1C [compound 3, YC-17]
MycCI/MycCII
  C-H oxidation of the compound by the enzyme: unable to catalyze C-H oxidation
MycCI [1]
  Percent of enzyme in high-spin state at saturating substrate: ~ 30%

B1: MycCII: [3Fe-4S]-type ferredoxin encoded by mycCII, redox partner of MycCI (protein)
chain: MRIVLDAERCVGAGQCEATAPELFTQGDDGLGLVRDRPVTPELLGPAREAVDRCPVRAIRIESSVRTGWARGAG
modifications: left off: His tag, N-terminal, state not stated
MycCI [5]
  Kd: 7 µM
